Results: patent US20220062440A1, “OLIGOMER-SELECTIVE FLUORESCENT INDICATOR DYES” (University of South Florida, priority 2018, published 2022)
“Also recorded” adds a separate entry of the source. Read-outs that look alike come from different tables or passages of the source.

How the values were obtained:
[1] = tested on: amyloid aggregates (gO/CF and RF); conditions: cited from earlier work; for Response to gO/CF vs. RF aggregates (selectivity): literature / background statement
[2] = target: T1, hen egg-white lysozyme (hewL) amyloid aggregates: gO/CFs vs. RFs (Gallus gallus, UniProt P00698); experiment: Kinetic dye screening assay: dye fluorescence response during sigmoidal vs. biphasic amyloid assembly, ThT as reference; format: binding; conditions: for Fluorescence response to initial gO/CF (oligomer) phase of biphasic growth / Fluorescence response to RF nucleation and growth: hewL, pH 2, 52° C.; for Fluorescence response to initial gO/CF (oligomer) phase of biphasic growth: above COC (biphasic regime); for Fluorescence response to RF nucleation and growth: second phase of biphasic growth or sigmoidal growth; for Oligomer (gO/CF) selectivity over fibrils: hewL amyloid assembly, sigmoidal vs. biphasic kinetics
T1 construct: hen egg-white lysozyme (hewL); from tissue
Source text: A kinetic assay that clearly delineates growth conditions dominated by gO/CF or RF formation as simple function of protein concentration was developed. This kinetic assay was used in conjunction with high-resolution (AFM or TEM) imaging of aggregate morphologies to identify dyes that display well-defined selectivity of gO/CFs over RFs (FIGS. 1A-1E).
The basis of the kinetic assay is the existence of a “critical oligomer concentration” or COC, distinct from and higher than the protein concentration required for fibril growth [Tatiana Miti, et al. Biomacromolecules (2015) 16:326-335]. Using both hen-egg white lysozyme and a dimeric Aβ construct, it was shown that crossing this COC causes a sharp transition in ThT kinetics from the ubiquitous “sigmoidal” growth kinetics of nucleated polymerization to lag-free bimodal kinetics. The initial phase of bimodal growth is dominated by gO/CF formation while the secondary upswing indicates RF nucleation and growth [Filip Hasecke, et al. Chem. Sci. (2018) 9: 5937-5948]. When below this COC HEWL grows RFS aggregates with a distinct lag phase before the start of growth. Monitoring dye responses both below and above the COC allows rapid determination whether a given fluorescent dye responds only to the initial gO/CF or subsequent RF phase of amyloid growth.
Kinetic transition is an indicator of oligomer formation (Hasecke F. et al., Chem. Sci., 2018 9:5937-5948). The onset of gO/CF formation is delineated by a threshold protein concentration referred to herein as the “critical oligomer concentration” or COC. […] No populations of gO/CFs are observed. In contrast, gO/CF formation above the COC has no lag periods and results in biphasic kinetics (saturating gO/CF kinetics is superimposed to sigmodal RF kinetics). AFM confirms that the initial phase represents gO/CF formation while the second phase indicates RF nucleation and growth. Using this transition from sigmoidal to biphasic kinetics provides an efficient assay for screening dyes for their response to these distinct aggregate species.
Instead of requiring isolation and stabilization of amyloid oligomers, the dye screening protocol proposed here takes the identification of two distinct amyloid assembly regimes with distinctly different assembly kinetics (see FIG. 6 and Hasecke, F., et al. Chemical Science, 2018. 9:5937-5948). […] Following the initial lag phase, this regime yields pure populations of “traditional” rigid fibrils (RFs). It lacks any detectable populations of metastable globular oligomers (gOs) or curvilinear fibrils (CFs) during any stage of fibril assembly. Upon crossing a threshold protein (or salt) concentration a second, oligomer-dominated regime emerges. This regime is characterized by lag-free formation of readily detectable populations of gOs and CFs during its initial phase, with RFs emerging in a second growth phase. The transition to this regime is characterized by a concurrent switch in ThT-monitored assembly kinetics from sigmoidal to biphasic kinetics (Hasecke, F., et al. Chemical Science, 2018. 9:5937-5948; Miti, T., et al. Biomacromolecules, 2015. 16:326-335; Foley, J., et al. J Chem Phys., 2013. 139:121901; Hill, S. E., et al. PLoS ONE, 2011. 6:e18171). Monitoring fluorescence responses of dyes to amyloid assembly under either sigmoidal or biphasic growth conditions provides a direct and straight-forward readout for their selectivity to oligomer over fibril formation.
Using the above transition in the model amyloid hewL a small subset of about one dozen dyes were screened for oligomer-selective responses. Oligomer-free sigmoidal kinetics provided the read-out for dye responses to pure fibril formation—relative to the ThT response recorded under the same conditions. Responsiveness of dyes to gO/CF formation was evaluated during the initial gO/CF phase of biphasic kinetics, as long as it was well separated from the second RF-related upswing. […]

[3] = target: T2, hen egg-white lysozyme (hewL) amyloid aggregates (Gallus gallus, UniProt P00698); experiment: AFM imaging of hewL aggregate morphologies during biphasic growth in the presence of dye; conditions: 5 mg/ml hewL, pH 2, 52° C., CV 5 μM, listed as CV
T2 construct: hen egg-white lysozyme (hewL); from tissue
Source text: FIG. 8B contains AFM images from aliquots taken during biphasic amyloid growth in FIG. 8A from the CV wells at the indicated time points. […] This kinetic assay was used in conjunction with high-resolution (AFM or TEM) imaging of aggregate morphologies to identify dyes that display well-defined selectivity of gO/CFs over RFs (FIGS. 1A-1E). Using the above transition in the model amyloid hewL a small subset of about one dozen dyes were screened for oligomer-selective responses. Oligomer-free sigmoidal kinetics provided the read-out for dye responses to pure fibril formation—relative to the ThT response recorded under the same conditions. Responsiveness of dyes to gO/CF formation was evaluated during the initial gO/CF phase of biphasic kinetics, as long as it was well separated from the second RF-related upswing. Even this very limited and fairly arbitrary set of dyes yielded three different dyes with a modest level of oligomer-specific responses (FIG. 7). While encouraging, the level of oligomer selectivity, the overall fluorescence change upon either fibril or oligomer formation, or the rapid bleaching of the dyes under these growth conditions didn't warrant further investigation. […] It confirms that the progression of hewL aggregates during biphasic growth is not altered by the presence of CV.

T1 sequence (P00698 19-147): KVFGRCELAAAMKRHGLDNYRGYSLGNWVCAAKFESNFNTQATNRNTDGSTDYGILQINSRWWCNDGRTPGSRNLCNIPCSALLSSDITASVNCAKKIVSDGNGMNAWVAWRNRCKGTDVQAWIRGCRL
T2 sequence (P00698 19-147): as above

## Cc1ccc2c(c1)sc(-c1ccc(N(C)C)cc1)[n+]2C.[Cl-] [ThT, reference compound]
[1]
  Response to gO/CF vs. RF aggregates (selectivity): responds to both gO/CF and RF aggregates, albeit with different sensitivities; also recorded: highly skewed towards late-stage amyloid fibrils
[1]; listed as Thioflavin T
  Response to gO/CF vs. RF aggregates (selectivity): considerably less enhanced by gO/CF vs. RF formation
[1]; listed as thioflavin T
  Response to gO/CF vs. RF aggregates (selectivity): preferentially respond to late stage RFs instead of gOs and CFs
[2]
  Fluorescence response to initial gO/CF (oligomer) phase of biphasic growth: robust response to the initial gO/CF dominated phase; also recorded: expected biphasic behavior as the sample grows gO/CFs up to a first plateau; also recorded: weak biphasic response; also recorded: identical response to amyloid growth prior to the onset of RF formation
  Fluorescence response to RF nucleation and growth: readily picked up; also recorded: second upswing and plateau indicating the onset of RF nucleation and growth; also recorded: continues to rise following RF nucleation

## O=C(O)c1cc(/C=C/c2ccc(/C=C/c3ccc(O)c(C(=O)O)c3)cc2)ccc1O [X-34, reference compound]
[2]
  Oligomer (gO/CF) selectivity over fibrils: (weak) select responses to oligomer-dominated phase

## Nc1c(/N=N/c2ccc(-c3ccc(/N=N/c4cc(S(=O)(=O)O)c5ccccc5c4N)cc3)cc2)cc(S(=O)(=O)O)c2ccccc12 [congo red]
[1]
  Response to gO/CF vs. RF aggregates (selectivity): preferentially respond to late stage RFs instead of gOs and CFs

## N#CC(C#N)=Cc1ccc(-c2ccc(-c3ccc(O)cc3)s2)s1 [NIAD-4]
[1]
  Response to gO/CF vs. RF aggregates (selectivity): preferentially respond to late stage RFs instead of gOs and CFs

## CN(C)c1ccc(C(=C2C=CC(=[N+](C)C)C=C2)c2ccc(N(C)C)cc2)cc1 [crystal violet, tris(4-(dimethylamino)phenyl)methylium chloride]
[3]
  Effect of dye on aggregate types / progression of aggregates (AFM): not altered; also recorded: did not alter the types of aggregates observed
[1]; literature (Cooper 1969)
  Amyloid staining: weak metachromatic amyloid stain
[2]
  Oligomer (gO/CF) selectivity over fibrils: oligomer-selective dye and noticeable oligomer selectivity and OSD and preferentially enhanced upon binding to gO/CFs
  Fluorescence response to initial gO/CF (oligomer) phase of biphasic growth: responds nearly exclusively to the initial (oligomer) phase; also recorded: identical response to amyloid growth prior to the onset of RF formation
  Fluorescence response to RF nucleation and growth: weak fibril response; also recorded: little or no response to the onset of RF formation; also recorded: level off
[2]; listed as CV
  Fluorescence response to initial gO/CF (oligomer) phase of biphasic growth: robust response to the initial gO/CF dominated phase
  Fluorescence response to RF nucleation and growth: lacks the upswing to subsequent RF nucleation and growth; also recorded: weak response to RF formation
[2]; listed as Crystal violet
  Fluorescence response to initial gO/CF (oligomer) phase of biphasic growth: closely match the kinetics of the initial gO/CF phase in ThT kinetics
  Fluorescence response to RF nucleation and growth: very weak responses upon the onset of RF formation
[2]; sigmoidal and initial phase of biphasic growth of hewL
  Temporal correlation of dye signal with ThT signal: one-to-one temporal correlation

## CC1=C/C(=C(\c2ccc(N)c(S(=O)(=O)[O-])c2)c2ccc(N)c(S(=O)(=O)O)c2)C=C(S(=O)(=O)[O-])C1=N.[Na+].[Na+] [acid fuchsin, reference compound]
[2]
  Oligomer (gO/CF) selectivity over fibrils: (weak) select responses to oligomer-dominated phase

## methyl violet
[2]
  Oligomer (gO/CF) selectivity over fibrils: noticeable oligomer selectivity

## CN(C)c1ccc2cc3ccc(N(C)C)cc3nc2c1 [acridine orange, reference compound]
[2]
  Oligomer (gO/CF) selectivity over fibrils: (weak) select responses to oligomer-dominated phase

## N#CC(C#N)=Cc1cc2c3c(c1)CCCN3CCC2 [DCVJ, 9-(Dicyanovinyl) Julolidine]
[1]
  Response to gO/CF vs. RF aggregates (selectivity): some oligomer selectivity
